In one data set the test system is C57 mice. The data set can be described thus: Mouse hot plate experiment. Format: in vivo. As to conditions: female C57 mice, subcutaneous, detection 15 minutes after administration, hot plate 56° C., cut-off 30 seconds. The method, then:
Test 2: Mouse Hot Plate Experiment
18-22 g of female C57 mice were purchased from Chengdu Dashuo Experimental Animal Co., Ltd. The temperature of the hot plate instrument was set to 56° C., and after reaching 56° C., the temperature was stabilized for 30 minutes before experiment. The animals were placed in a hot plate test in order to observe the reaction of licking the hind feet, which was used as an indicator of pain response. The time from the entry of the animal to the hot plate to the heat-induced licking of the hind feet was recorded. Animals that meet the inclusion criteria (response time to lick the hind foot is less than 25s) are included in the group number. The animals were grouped by baseline threshold, with 10 in each group. Compounds of different concentrations were administered subcutaneously at 10 ml/kg, and a detection was carried out after 15 minutes of administration, with 30 seconds as the cut-off time, and the reaction time was recorded. The results were analyzed statistically, and the % MPE value was calculated according to the formula: % MPE=(Tn−T0)/(30−T0), (Tn is the time for the animal to lick the hind foot after administration, T0 is the time for the animal to lick the foot before administration) The experimental results are shown in Table 2.

The target in another data set is T1, human κ-opioid receptor (Homo sapiens, UniProt P41145).
T1 construct: host or cells: OPRK1 cells (DiscoveRx)
T1 sequence (P41145 whole entry): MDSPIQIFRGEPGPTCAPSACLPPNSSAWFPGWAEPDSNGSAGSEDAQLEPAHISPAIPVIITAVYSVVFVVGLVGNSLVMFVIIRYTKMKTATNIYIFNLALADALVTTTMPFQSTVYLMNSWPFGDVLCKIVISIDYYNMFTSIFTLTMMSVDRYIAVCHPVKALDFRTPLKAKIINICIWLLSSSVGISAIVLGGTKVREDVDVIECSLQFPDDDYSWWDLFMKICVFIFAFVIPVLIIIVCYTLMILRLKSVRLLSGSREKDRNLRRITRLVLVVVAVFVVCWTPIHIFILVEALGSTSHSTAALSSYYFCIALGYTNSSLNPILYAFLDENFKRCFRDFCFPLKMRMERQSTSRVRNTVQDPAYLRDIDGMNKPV
The data set can be described thus: Agonist activity on human κ-opioid receptors (inhibition of forskolin-stimulated cAMP release, TR-FRET). It counts as cell-based. The note with it: OPRK1 cells (DiscoveRx). The source says: Test 1: Agonist Activity on Human κ-Opioid Receptors
Forskolin can stimulate the release of cAMP from a human κ-opioid receptor-overexpressing cell line, OPRK1 cells (DiscoveRx), and κ-opioid receptor agonists can inhibit the cAMP release stimulated by forskolin. By detecting the inhibitory effect of the test compound on the cAMP release stimulated by forskolin, the agonistic activity of the compound on the human κ-opioid receptor can be determined. First, a certain concentration of forskolin and different concentrations of the test compound were incubated with human κ-opioid receptor overexpressing cell lines. A cAMP immunoassay (LANCE®, PerkinElmer) based on time-resolved fluorescence resonance energy transfer (TR-FRET) was used to determine cAMP levels in the stimulated OPRK1 cells. The specific method is as follows:
OPRK1 cells (DiscoveRx) that highly express human κ-opioid receptors were cultured in McCoy's 5A (Gibco 16600-082) medium containing 10% FBS (Gibco 10099-141). On the day of the experiment, the cells in the exponential growth phase were washed and separated with PBS/5 mM EDTA, collected by centrifugation, resuspended with Stimulation Buffer and counted. The concentration of cells was adjusted to 3*10^5 cells/ml. DMSO was used to dissolve Forskolin and the test compound respectively, so that the mother liquor concentration each was 10 mM, and then diluted Forskolin to […] with Stimulation Buffer, and different concentrations of the test compound (the concentrations were 80, 16, 3.2, 0.64, 0.128, 0.0256, 0.00512, 0.001024, 0 μM) was added, 5 μl per well was added to a 384-well plate. 5 μl of cell suspension was added to each well and incubated at room temperature for 30 min. Subsequently, 5 μl of 4×Eu-cAMP tracer working solution (50-fold dilution of Eu-cAMP stock solution with cAMP Detection Buffer) and 5 μl of 4×Ulight-anti-cAMP working solution (150-fold dilution of ULight-anti-cAMP stock solution with cAMP Detection Buffer) were added to each well, and incubated at room temperature for 1 hour. 384-well plates were assayed for cAMP levels using a microplate reader (Perkin Elmer, Envision) TR-FRET method. The obtained data were processed and fitted to EC50 using the origin 7.5 software. The human κ-opioid receptor agonistic activity of the compound of the present invention was measured through the above experiments, and the measured EC50 values are shown in Table 1.
Stimulation Buffer preparation method: 14 mL 1*HBSS (invitrogen, cat. #14025-092), 75 μL 1 M HEPES (Invitrogen, cat. #15630-080), 30 μL 250 mM IBMX was dissolved in DMSO (Sigma, cat. #17018) and mixed with 200 μL 7.5% BSA Stabilizer. pH of the solution was adjusted to 7.4 with 0.1 N NaOH and make up to 15 mL with 1*HBSS.
On the technique in general: TR-FRET usually uses a lanthanide donor and a delayed reading to cut background.

The next data set in a line: Rat PK test. It counts as in vivo. As to conditions: male SD rats, iv, 1 mg/kg (calculated in free form).
The next data set in a line: Mouse PK test. Format: in vivo. The note with it: plasma, male ICR mice, iv, 1 mg/kg (calculated in free form).

For `CC(C)C[C@@H](NC(=O)[C@@H](Cc1ccccc1)NC(=O)[C@H](N)Cc1ccccc1)C(=O)N[C@H](CCCCN)C(=O)N1CC2(C1)CC1(CNC(=O)C1)C2` [Compound 4, (2R)—N-[(1R)-5-amino-1-(9-oxo-2,8-diazadispiro[3.1.4^6.1^4]undecane-2-carbonyl)pentyl]-2-[[(2R)-2-[[(2R)-2-amino-3-phenyl-propanoyl]amino]-3-phenyl-propanoyl]amino]-4-methyl-pentanamide; di-trifluoroacetic acid], the “MPE(%)” value in the data set on C57 mice was −19.62%. Further, the 50% effective concentration (EC50) on human κ-opioid receptor was determined as 0.0159 nM.

As for `CC(C)C[C@@H](NC(=O)[C@@H](Cc1ccccc1)NC(=O)[C@H](N)Cc1ccccc1)C(=O)N[C@H](CCCCN)C(=O)N1CCC2(CC1)CC(N)(C(=O)O)C2` [Compound 2, 2-amino-7-[(2R)-6-amino-2-[[(2R)-2-[[(2R)-2-[[(2R)-2-amino-3-phenyl-propanoyl]amino]-3-phenyl-propanoyl]amino]-4-methyl-pentanoyl]amino]hexanoyl]-7-azaspiro[3.5]nonane-2-carboxylic acid; tri-trifluoroacetic acid], the Cl in “Rat PK test” is 5.97 ml/kgmin. Moreover, in “Rat PK test” (rat, plasma), the AUC(0-t) was 2660 ng·h/mL and the half-life is 4.22 h. Also, the Vd in “Rat PK test” (rat, plasma, read-out: Vdss) was 1.47 L/kg. Further, the “MPE(%)” value with C57 mice is reported as −17.20%. This compound had an EC50 at human κ-opioid receptor of 0.41 nM.

For `CC(=O)N1CC2(CCN(C(=O)[C@@H](CCCCN)NC(=O)[C@@H](CC(C)C)NC(=O)[C@@H](Cc3ccccc3)NC(=O)[C@H](N)Cc3ccccc3)CC2)C1` [Compound 8, (2R)—N-[(1R)-1-(2-acetyl-2,7-diazaspiro[3.5]nonane-7-carbonyl)-5-amino-pentyl]-2-[[(2R)-2-[[(2R)-2-amino-3-phenyl-propanoyl]amino]-3-phenyl-propanoyl]amino]-4-methyl-pentanamide; di-trifluoroacetic acid], in the data set with C57 mice, the “MPE(%)” value is reported as −18.61%. The compound further showed a concentration giving a half-maximal response (EC50) on human κ-opioid receptor of 0.0112 nM. Further, in “Mouse PK test”, the AUC(0-t) is 1220 ng·h/mL and the half-life was 5.77 h.

On to `CNC(=O)N1CC2(CCN(C(=O)[C@@H](CCCCN)NC(=O)[C@@H](CC(C)C)NC(=O)[C@@H](Cc3ccccc3)NC(=O)[C@H](N)Cc3ccccc3)CC2)C1` [Compound 15, 7-[(2R)-6-amino-2-[[(2R)-2-[[(2R)-2-[[(2R)-2-amino-3-phenyl-propanoyl]amino]-3-phenyl-propanoyl]amino]-4-methyl-pentanoyl]amino]hexanoyl]-N-methyl-2,7-diazaspiro[3.5]nonane-2-carboxamide; di-trifluoroacetic acid], for which the “MPE(%)” value in the data set on C57 mice is reported as −13.29%. At human κ-opioid receptor, this compound showed an EC50 of 0.0117 nM.

As usually defined, the EC50 is the concentration that produces a half-maximal response. Read a high EC50 as a need for much substance. By AUC(0-t) is commonly meant the area under the concentration-time curve up to a stated or last time point. The term half-life denotes how long it takes for the measured level to halve.

(Values after US11014964B2, “Peptide amide compound and preparation method and medical use thereof” (Sichuan Haisco Pharmaceutical Co., Ltd., priority 2017, dated 2021).)
